From PubChem BioAssay (NCI)
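Where inhibition never reached the appropriate level, the endpoint shown equals the highest concentration tested. Otherwise, values were interpolated linearly from a five-concentration, 48-hour dose response in 96-well plates. GI50 marks 50% less growth. TGI marks complete inhibition of growth.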

Experiments:
Test in all cases: NCI tumour cell line growth inhibition, 48 h; in the data active means GI50 below about 0.43 µM; inactive means the rest
HCT-116 colon = test system: HCT-116 colon
MOLT-4 leukemia = test system: MOLT-4 leukemia
786-0 renal = test system: 786-0 renal
SK-MEL-5 melanoma = test system: SK-MEL-5 melanoma
EKVX NSCLC = test system: EKVX NSCLC
A549 NSCLC = test system: A549 NSCLC
A498 renal = test system: A498 renal
TK-10 renal = test system: TK-10 renal
M14 melanoma = test system: M14 melanoma
RXF 393 renal = test system: RXF 393 renal
UACC-62 melanoma = test system: UACC-62 melanoma
MDA-MB-231 breast = test system: MDA-MB-231 breast
DU-145 prostate = test system: DU-145 prostate
SK-OV-3 ovarian = test system: SK-OV-3 ovarian
NCI-H460 lung = test system: NCI-H460 lung
U251 CNS = test system: U251 CNS
MALME-3M melanoma = test system: MALME-3M melanoma
HCC-2998 colon = test system: HCC-2998 colon
COLO 205 colon = test system: COLO 205 colon
LOX IMVI melanoma = test system: LOX IMVI melanoma
NCI-H522 lung = test system: NCI-H522 lung
UO-31 renal = test system: UO-31 renal
OVCAR-5 ovarian = test system: OVCAR-5 ovarian
IGROV1 ovarian = test system: IGROV1 ovarian
SK-MEL-28 melanoma = test system: SK-MEL-28 melanoma
HS 578T breast = test system: HS 578T breast
MDA-MB-435 = test system: MDA-MB-435
SNB-19 CNS = test system: SNB-19 CNS
HOP-92 NSCLC = test system: HOP-92 NSCLC
OVCAR-3 ovarian = test system: OVCAR-3 ovarian
NCI-H226 lung = test system: NCI-H226 lung
NCI/ADR-RES ovarian = test system: NCI/ADR-RES ovarian
MCF7 breast = test system: MCF7 breast
HOP-62 NSCLC = test system: HOP-62 NSCLC
K-562 leukemia = test system: K-562 leukemia
RPMI-8226 leukemia = test system: RPMI-8226 leukemia
PC-3 prostate = test system: PC-3 prostate
SNB-75 CNS = test system: SNB-75 CNS
OVCAR-8 ovarian = test system: OVCAR-8 ovarian
SW-620 colon = test system: SW-620 colon
BT-549 breast = test system: BT-549 breast
HCT-15 colon = test system: HCT-15 colon
ACHN renal = test system: ACHN renal
CCRF-CEM leukemia = test system: CCRF-CEM leukemia
T-47D breast = test system: T-47D breast
SN12C renal = test system: SN12C renal
CAKI-1 renal = test system: CAKI-1 renal
KM12 colon = test system: KM12 colon
SF-295 CNS = test system: SF-295 CNS
NCI-H23 lung = test system: NCI-H23 lung
SF-539 CNS = test system: SF-539 CNS
SK-MEL-2 melanoma = test system: SK-MEL-2 melanoma
OVCAR-4 ovarian = test system: OVCAR-4 ovarian
SF-268 CNS = test system: SF-268 CNS
UACC-257 melanoma = test system: UACC-257 melanoma

NC1=NC(c2ccccc2Cl)c2c(n[nH]c2N)N1 (stereo not given)
> 100 µM: TGI (HCT-116 colon) | TGI (MOLT-4 leukemia) | TGI (786-0 renal) | TGI (SK-MEL-5 melanoma) | TGI (EKVX NSCLC) | TGI (A549 NSCLC) | TGI (A498 renal) | TGI (TK-10 renal) | TGI (M14 melanoma) | TGI (UACC-62 melanoma) | TGI (MDA-MB-231 breast) | TGI (DU-145 prostate) | TGI (SK-OV-3 ovarian) | TGI (NCI-H460 lung) | TGI (U251 CNS) | TGI (MALME-3M melanoma) | TGI (HCC-2998 colon) | TGI (COLO 205 colon) | TGI (LOX IMVI melanoma) | TGI (NCI-H522 lung) | TGI (UO-31 renal) | TGI (OVCAR-5 ovarian) | TGI (IGROV1 ovarian) | TGI (SK-MEL-28 melanoma) | TGI (HS 578T breast) | TGI (MDA-MB-435) | TGI (SNB-19 CNS) | TGI (HOP-92 NSCLC) | TGI (OVCAR-3 ovarian) | TGI (NCI-H226 lung) | TGI (NCI/ADR-RES ovarian) | TGI (MCF7 breast) | TGI (HOP-62 NSCLC) | TGI (K-562 leukemia) | TGI (RPMI-8226 leukemia) | TGI (PC-3 prostate) | TGI (SNB-75 CNS) | TGI (OVCAR-8 ovarian) | TGI (SW-620 colon) | TGI (BT-549 breast) | TGI (HCT-15 colon) | TGI (ACHN renal) | TGI (CCRF-CEM leukemia) | TGI (T-47D breast) | TGI (SN12C renal) | TGI (CAKI-1 renal) | TGI (KM12 colon) | TGI (SF-295 CNS) | TGI (NCI-H23 lung) | TGI (SF-539 CNS) | TGI (SK-MEL-2 melanoma) | TGI (OVCAR-4 ovarian) | TGI (SF-268 CNS) | TGI (UACC-257 melanoma)
97.6 µM: TGI (RXF 393 renal)
inactive: GI50 (HCT-116 colon) 7.77 µM | GI50 (MOLT-4 leukemia) 22.5 µM | GI50 (786-0 renal) 9.18 µM | GI50 (SK-MEL-5 melanoma) 29.2 µM | GI50 (EKVX NSCLC) 44.2 µM | GI50 (A549 NSCLC) 6.96 µM | GI50 (A498 renal) 17.5 µM | GI50 (TK-10 renal) > 100 µM | GI50 (M14 melanoma) 18.1 µM | GI50 (RXF 393 renal) 13.7 µM | GI50 (UACC-62 melanoma) 13.5 µM | GI50 (MDA-MB-231 breast) 5.95 µM | GI50 (DU-145 prostate) 61 µM | GI50 (SK-OV-3 ovarian) > 100 µM | GI50 (NCI-H460 lung) 5.9 µM | GI50 (U251 CNS) 28 µM | GI50 (MALME-3M melanoma) 61.3 µM | GI50 (HCC-2998 colon) 65 µM | GI50 (COLO 205 colon) 23.9 µM | GI50 (LOX IMVI melanoma) 2.98 µM | GI50 (NCI-H522 lung) 19.6 µM | GI50 (UO-31 renal) 9.21 µM | GI50 (OVCAR-5 ovarian) 50.2 µM | GI50 (IGROV1 ovarian) 9.48 µM | GI50 (SK-MEL-28 melanoma) 42.5 µM | GI50 (HS 578T breast) > 100 µM | GI50 (MDA-MB-435) 15 µM | GI50 (SNB-19 CNS) 39.7 µM | GI50 (HOP-92 NSCLC) 18.2 µM | GI50 (OVCAR-3 ovarian) 32.1 µM | GI50 (NCI-H226 lung) 38.4 µM | GI50 (NCI/ADR-RES ovarian) 30.4 µM | GI50 (MCF7 breast) 7.09 µM | GI50 (HOP-62 NSCLC) 80.1 µM | GI50 (K-562 leukemia) 4.52 µM | GI50 (RPMI-8226 leukemia) 42.9 µM | GI50 (PC-3 prostate) 85.8 µM | GI50 (SNB-75 CNS) 48 µM | GI50 (OVCAR-8 ovarian) 45.6 µM | GI50 (SW-620 colon) 18.9 µM | GI50 (BT-549 breast) 27.4 µM | GI50 (HCT-15 colon) 30.8 µM | GI50 (ACHN renal) 34.6 µM | GI50 (CCRF-CEM leukemia) 4.59 µM | GI50 (T-47D breast) 26.1 µM | GI50 (SN12C renal) 8.35 µM | GI50 (CAKI-1 renal) 10.9 µM | GI50 (KM12 colon) 29.4 µM | GI50 (SF-295 CNS) 16.7 µM | GI50 (NCI-H23 lung) 20.3 µM | GI50 (SF-539 CNS) 57 µM | GI50 (SK-MEL-2 melanoma) 65.3 µM | GI50 (OVCAR-4 ovarian) > 100 µM | GI50 (SF-268 CNS) 26.9 µM | GI50 (UACC-257 melanoma) 94.6 µM
